According to PubChem BioAssay AID1159558 (GlaxoSmithKline (GSK), 2015):
Active and inactive are the calls of the source.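 Rule for the calls: active = IC50 against T. cruzi CYP51 below a set limit; inactive = the rest.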

target: Sterol 14-alpha demethylase (Trypanosoma cruzi (strain CL Brener)) (UniProt Q7Z1V1); test: TcCYP51 inhibitors, dose response, mechanism study for T. cruzi antiparasitic project, biochemical, recombinant enzyme (AID 1159558);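 note: enzyme in bacterial membranes with Anopheles gambiae CYP reductase and cytochrome b5 partners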; conditions: recombinant T. cruzi CYP51, BOMCC fluorescence
Sequence (Q7Z1V1 whole entry, looked up): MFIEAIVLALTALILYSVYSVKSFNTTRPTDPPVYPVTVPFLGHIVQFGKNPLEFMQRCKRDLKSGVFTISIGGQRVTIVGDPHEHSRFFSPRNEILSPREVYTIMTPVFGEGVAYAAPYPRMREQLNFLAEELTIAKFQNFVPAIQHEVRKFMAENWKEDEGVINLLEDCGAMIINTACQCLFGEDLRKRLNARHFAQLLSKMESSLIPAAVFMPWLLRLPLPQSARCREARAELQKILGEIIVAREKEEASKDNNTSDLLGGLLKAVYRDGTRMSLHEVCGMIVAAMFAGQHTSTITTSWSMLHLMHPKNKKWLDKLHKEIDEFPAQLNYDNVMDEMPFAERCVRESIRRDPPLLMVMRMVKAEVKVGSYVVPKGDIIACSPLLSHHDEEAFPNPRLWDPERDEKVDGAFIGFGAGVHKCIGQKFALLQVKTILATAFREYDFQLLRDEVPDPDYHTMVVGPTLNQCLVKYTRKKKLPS

IC50 | Structure (SMILES)
13 µM | CCCCN(C(=O)c1ccc(NC(=O)C(C)C)cc1)c1ccccc1
> 100 µM (inactive) | N#Cc1cccc(CN2CCC(c3nc(-c4ccc(C(F)(F)F)nc4)no3)CC2)c1
32 µM | CN(C)S(=O)(=O)c1cccc(C(=O)Nc2nc(-c3ccccn3)cs2)c1
20 µM | CC(C)c1cc(Nc2cc(Cc3ccccc3)nc(NC3CCC(O)CC3)n2)n[nH]1 (stereo not given)
0.05 µM | CC1(C)CCC(=Cc2ccc(Cl)cc2)CC1(O)Cn1ccnc1 (stereo not given)
> 100 µM (inactive) | Cc1cc(NC(=O)CC2CCCCC2)n(-c2nc3c(c(=O)[nH]2)CCC3)n1
6.3 µM | Cc1ccc(Nc2nc(C3CCCN3Cc3ccn[nH]3)cs2)nc1 (stereo not given)
0.1 µM | c1ccc(CNc2cccc3ccncc23)cc1
> 100 µM (inactive) | Cn1nc([N+](=O)[O-])nc1N1CCCCC1
10 µM | COc1ccc(C2C3CCCCC3(O)CCN2CC(=O)Nc2ccc(Cl)cc2Cl)cc1 (stereo not given)
7.9 µM | Cc1ncsc1CNc1cnc(-c2ccc3c(c2)OCCO3)c(-c2cnn(C)c2)c1
0.025 µM | CS(=O)(=O)NC1CCC(Oc2cc3cnccc3cc2-c2ccsc2)CC1 (stereo not given)
16 µM | O=C(c1cccc(Nc2ncc(-c3ccc4c(c3)OCO4)cn2)c1)N1CCSC1
16 µM | CC(C(=O)Nc1ccccc1F)N(C)CC(=O)Nc1cccc2ccccc12 (stereo not given)
> 100 µM (inactive) | COc1ccc(C(=O)Nc2ccc(NC(=O)CO)cc2)cc1
> 100 µM (inactive) | O=C(Nc1nc(-c2ccccn2)cs1)c1ccccc1-n1cnnn1
63 µM | Cc1cc(Br)sc1CNCCCNc1cc(=O)c2ccccc2[nH]1
32 µM | N#Cc1cc(-c2ccnc(Nc3cccc(CN4CCOCC4)c3)n2)ccc1NCCN
0.13 µM | Fc1ccc(OC2CC(NCc3cccc4cn[nH]c34)C2)cc1C(F)(F)F (stereo not given)
63 µM | O=C(Nc1ccc(C(=O)N2CCCC2c2ccc3c(c2)OCCCO3)cc1)c1ccco1 (stereo not given)
25 µM | CNS(=O)(=O)c1ccccc1Nc1nc(Nc2cc(C)nn2C)ncc1Cl
0.1 µM | CNc1cncc(C2CCCN2C(=O)Cc2ccc3ccccc3c2)n1 (stereo not given)
7.9 µM | CN(CC1CCCO1)S(=O)(=O)c1ccc(C(=O)Nc2nc(-c3ccccn3)cs2)cc1 (stereo not given)
> 100 µM (inactive) | CCOc1ccc(OCC(=O)N2c3ccccc3CC2C(=O)NC)cc1 (stereo not given)
0.02 µM | O=C1CN(C2CCCc3c(OCc4ccncc4)cccc32)C(=O)N1C1CCCCC1 (stereo not given)
> 100 µM (inactive) | CCN(CC)c1nc(Nc2ccncc2)nc2ccccc12

IC50 | Structure (SMILES)
> 100 µM (inactive) | Nc1ncnc2c1ncn2[C@@H]1O[C@H](CO)C[C@H]1O
16 µM | COc1ccc(-c2cnc(NC(=O)c3cc(-c4ccccn4)n[nH]3)n2C)cc1
> 100 µM (inactive) | CN(C)Cc1ccc(N2CCC(NS(=O)(=O)c3ccc(Cl)cc3)CC2)cc1
40 µM | NCc1ccc2c(Cl)cc(Cl)c(O)c2n1
> 100 µM (inactive) | COc1cc(-c2nc(N3CCOCC3)sc2-c2ccnc(NC3CCOCC3)n2)ccc1Cl
40 µM | CC(C)n1c(-c2nonc2N)nc2cccc(OCCN3CCCC3)c21
0.063 µM | COc1ccc2nc(N(Cc3cccnc3)C(=O)C3CCC3)sc2c1
7.9 µM | CCN(Cc1cccs1)C(=O)CSc1nnc(-c2ccc3c(c2)OCO3)o1
0.05 µM | CC(CNS(=O)(=O)c1ccc(OC(F)F)cc1)c1ccc(NC(=O)c2ccncc2)cc1 (stereo not given)
> 100 µM (inactive) | O=C(Nc1nc(-c2ccc(S(=O)(=O)N3CCOCC3)cc2)cs1)c1ccc([N+](=O)[O-])cc1
5 µM | Cc1nc(-c2ccc3c(c2)OCO3)sc1C(=O)NCc1ccc2c(c1)OCO2
6.3 µM | CC(=O)Nc1ccc(-c2csc(NC(=O)c3ccc([N+](=O)[O-])s3)n2)cc1
> 100 µM (inactive) | O=C(Nc1ccc(Br)c(Cl)c1)Nc1ccc2c(c1)OCO2
0.16 µM | O=C(CN(c1cccc(C(F)(F)F)c1)S(=O)(=O)c1ccc(Cl)cc1)NCc1ccc(F)c(F)c1
100 µM | O=C(CN(Cc1ccccn1)Cc1ccccn1)NCc1ccc2c(c1)OCO2
16 µM | COc1ccc(C(=O)NC2CCN(CCn3c(=O)ccc4ncc(F)cc43)CC2)cc1Cl
> 100 µM (inactive) | CS(=O)(=O)NC1CCC(Nc2ncc(Br)c(Nc3ccccc3C(N)=O)n2)CC1 (stereo not given)
25 µM | Cc1nn(-c2nc3ccccc3[nH]2)c2c1C(c1ccc(O)cc1)CC(=O)N2 (stereo not given)
16 µM | O=c1ccn(-c2ccc([N+](=O)[O-])cc2Cl)c2ccc(F)cc12
0.079 µM | O=C(CSc1ccc(F)cc1)N[C@@H](Cc1cnc[nH]1)C(=O)NCCc1ccccc1
0.1 µM | Cc1cc2cncn2c(C2CCCCN2C(=O)c2cccs2)n1 (stereo not given)
13 µM | O=C(CC1(O)C(=O)N(Cc2cccs2)c2ccc(Br)cc21)c1cccnc1 (stereo not given)
> 100 µM (inactive) | CCC(=O)Nc1ccc(C(=O)Nc2ccccc2-c2ccccc2)cc1
0.063 µM | Fc1ccccc1N1C[C@H]2CCN(c3cccnc3)C[C@H]2C1
50 µM | Cc1ccc(Nc2nc(N)nc(CNC(c3nc4ccccc4[nH]3)C(C)C)n2)cc1 (stereo not given)
16 µM | Cc1nc(-c2nc(NCc3ccc(Cl)cc3)c3cccnc3c2O)n[nH]1

IC50 | Structure (SMILES)
> 100 µM (inactive) | Cc1[nH]nc(C(F)(F)F)c1NC(=O)CCn1cc(Cl)c([N+](=O)[O-])n1
25 µM | CCCc1cc(C(=O)Nc2ncc(-c3cccc(Br)c3)n2C)n[nH]1
> 100 µM (inactive) | Cc1cnc(Nc2cc(Cc3ccccc3)nc(NC3CCC(O)CC3)n2)s1 (stereo not given)
63 µM | O=c1cc(CSc2ccc(Cl)cc2)nc(-c2ccccn2)[nH]1
5 µM | CC(=O)NCCNc1cc(-c2ccnc(Nc3cccc(Cl)c3)n2)ccn1
> 100 µM (inactive) | O=C(NCC1CCCCN1C(=O)c1cccc2ccccc12)c1ccccc1 (stereo not given)
1 µM | NCC(Cc1ccccc1)NC(=O)c1cnc(-c2c[nH]c3ncccc23)s1 (stereo not given)
7.9 µM | CC(C)c1sc(Cl)nc1C(=O)NCCc1nc(C(=O)Nc2ccc3c(c2)OCO3)cs1
> 100 µM (inactive) | COc1cc(OC)cc(C(=O)N[C@@H](CC(C)C)C(=O)NC2(C#N)CC2)c1
79 µM | CCCCn1c(=O)c2c(N)onc2n(CCCC)c1=O
0.079 µM | COc1ccc(CN(C)Cc2ccncc2)cc1-c1ccc(S(=O)(=O)NC2CCC2)s1
25 µM | Cc1ccc(Nc2nc(-c3ccccn3)cc(N3CCCC(O)C3)n2)cc1 (stereo not given)
63 µM | Cn1nc(-c2ccc(NC(=O)Cc3ccccc3Cl)cc2)c2c(N)ncnc21
79 µM | Cc1[nH]nc(Nc2ccnc3[nH]ccc23)c1C
40 µM | CCNc1cc(-c2ccccn2)nc(Nc2ccc(OC)cc2)n1
> 100 µM (inactive) | CC1CN(S(=O)(=O)c2ccc(NC(=O)c3cc(C4CC4)nc4c3cnn4C(C)C)cc2)CC(C)O1 (stereo not given)
32 µM | CN(CCOc1ccc(Cl)cc1)Cc1nc(N)nc(N(C)C)n1
0.1 µM | CN(Cc1ccc(C(N)=O)cc1)C(c1ccc(F)cc1)c1cccnc1 (stereo not given)
> 100 µM (inactive) | Cc1[nH]n2c(=O)c3c(nc2c1-c1ccc(Br)cc1)CCCC3
> 100 µM (inactive) | CN(C)c1ccc(N)cc1CN(CC1CCCO1)S(C)(=O)=O (stereo not given)
> 100 µM (inactive) | COc1ccc(Cc2nc(-c3ncc4cccnc4c3O)n[nH]2)cc1OC
> 100 µM (inactive) | COc1ccc(C(C)N(C)c2ncc3c(N)nc(N)nc3n2)cc1F (stereo not given)
0.32 µM | NCc1csc(Nc2cc(Oc3ccccc3)ncn2)n1
7.9 µM | COCCn1c(-c2ccccc2)cnc1NCc1ccccc1OC
> 100 µM (inactive) | Cc1ccc(CNC2CCN(C[C@@H]3Cn4c(=O)ccc5ccc(=O)n3c54)CC2)cc1F
> 100 µM (inactive) | Cc1cc(NC(=O)C2CCCCC2)n(-c2nc3c(c(=O)[nH]2)CCC3)n1

IC50 | Structure (SMILES)
32 µM | Cn1c(CC(=O)NNC(=O)c2ccc3ccccc3n2)nc2ccccc21
> 100 µM (inactive) | c1ccc2[nH]c(-c3ccc(N4CCCC4)nc3)nc2c1
0.063 µM | COc1cccc(C(=O)[C@H]2C[C@@H]2CN(Cc2cccnc2)Cc2cccnc2)c1
0.063 µM | COc1ccc(C(=O)N2CCC(Nc3cccnc3)C2)c(OC)n1 (stereo not given)
0.79 µM | CCC1Oc2cc(S(=O)(=O)N(C)CC(=O)N3CCc4ccccc4C3)c(C)cc2NC1=O (stereo not given)
0.16 µM | O=C1CSC(c2cccnc2)N1c1ccc(Cl)cc1Cl (stereo not given)
10 µM | Cc1cc2cc(CNc3ccc4c(c3)OCO4)c(=O)n(CCO)c2cc1C
50 µM | COCCn1cnc2cc(NC(=O)C3CCCCC3)cc(C(=O)N3CCc4sccc4C3)c21
> 100 µM (inactive) | CN(Cc1cc2ccccc2s1)c1ncc2c(N)nc(N)nc2n1
13 µM | COc1ccc(CNc2nsc3ccccc23)cc1OC
> 100 µM (inactive) | CNC(=O)C1Cc2ccccc2N1C(=O)Cc1ccccc1 (stereo not given)
63 µM | COc1ccc(C2CC(c3ccccc3Cl)=NN2C(=O)CNC(=O)C2CCCC2)cc1 (stereo not given)
> 100 µM (inactive) | COc1cccc(-c2c(C)nn(-c3nc(N)nc(-c4ccccn4)n3)c2N)c1
> 100 µM (inactive) | Cc1cc(N2CCc3ccccc3C2)nc(Nc2ccc(S(=O)(=O)N3CCOCC3)cc2)n1
6.3 µM | O=C(COc1nn(-c2ccccc2)c2ncccc12)NCc1ccccc1
7.9 µM | C=CCN(Cc1cccs1)C(=O)CSc1nnc(-c2ccc3c(c2)OCO3)o1
13 µM | Nc1nonc1-c1nc2cncc(C(=O)N3CC[C@H](N)C3)c2n1CC1CC1
> 100 µM (inactive) | CNC(=O)C1Cc2ccccc2N1C(=O)Cc1ccc(F)cc1 (stereo not given)
> 100 µM (inactive) | Cc1cc2ncn(-c3ccc([N+](=O)[O-])cc3C#N)c2cc1C
> 100 µM (inactive) | COc1ccc(-c2cc(C)no2)cc1S(=O)(=O)Nc1ccc(F)c(Cl)c1
50 µM | COc1ccc(Nc2nc(-c3ccccn3)cc(N3CCCC(O)C3)n2)cc1 (stereo not given)
0.079 µM | O=S(=O)(NCC(c1cccnc1)N1CCN(c2ccccc2F)CC1)c1ccc(F)cc1 (stereo not given)
25 µM | CN(C)CCOc1ccc(N2CCN(S(=O)(=O)c3ccc(Cl)cc3)CC2)cc1
> 100 µM (inactive) | COc1cccc(Nc2cc(C)nc(-c3ccccn3)n2)c1

Structure (SMILES) | IC50
N#Cc1cccc(CN2CCC(N(Cc3cccnc3)C(=O)c3cc(F)c(F)cc3F)CC2)c1 | 0.05 µM
COc1cc(C2SCC(=O)Nc3c2c(C)nn3-c2nc3ccccc3s2)cc(OC)c1O (stereo not given) | 5 µM
CC(C)(C)C(O)(CCc1ccc(Cl)cc1)Cn1cncn1 (stereo not given) | 0.13 µM
